# Laboratory results as given in patent US12559732B2, “Compositions and methods for producing human milk oligosaccharides” (NORTH CAROLINA STATE UNIVERSITY, priority 2020, dated 2026).
# Columns and labels:
# [1] = system: Hamamotoa (Sporobolomyces) singularis β-hexosyl-transferase (BHT, EC 3.2.1.21), native; details: lactose concentrations above 20%; cited from earlier work
# [2] = biological target: T1, Hamamotoa (Sporobolomyces) singularis β-hexosyl-transferase (BHT), truncated variant rBHT(23-594)-HIS (residues 1-22 removed); MFα-rBht(23-594)-HIS SEQ ID NO: 38 (Hamamotoa singularis, UniProt Q564N5); assay: Kinetics of ONP-Glu cleavage by purified soluble rBHT(23-594)-HIS; assay type: biochemical; details: 0.08-10.4 mM ONP-Glu, 20, 30, 42 and 55° C.
# T1 construct: codon-optimized gene
# From the text: (§1) K. pastoris Transformation and Expression. […] Expression and purification have been described previously.
# (§2) Kinetic parameters of secreted soluble rBHT variants.
# [3] = biological target: Hamamotoa (Sporobolomyces) singularis β-hexosyl-transferase (BHT), truncated variant rBHT(32-594)-HIS (residues 1-31 removed); MFα-rBht(32-594)-HIS SEQ ID NO: 48 (Hamamotoa singularis, UniProt Q564N5); assay: Kinetics of ONP-Glu cleavage by purified soluble rBHT(32-594)-HIS; assay type: biochemical; details: 0.08-10.4 mM ONP-Glu, 20, 30, 42 and 55° C.
# From the text: as §1, §2
# [4] = biological target: Hamamotoa (Sporobolomyces) singularis β-hexosyl-transferase (BHT), truncated variant rBHT(54-594)-HIS (residues 1-53 removed); MFα-rBht(54-594)-HIS SEQ ID NO: 50 (Hamamotoa singularis, UniProt Q564N5); assay: Kinetics of ONP-Glu cleavage by purified soluble rBHT(54-594)-HIS; assay type: biochemical; details: 0.08-10.4 mM ONP-Glu, 20, 30, 42 and 55° C.
# From the text: as §1, §2
# [5] = biological target: T2, Hamamotoa (Sporobolomyces) singularis β-hexosyl-transferase (BHT), truncated variant rBHT(57-594)-HIS (residues 1-56 removed); MFα-rBht(57-594)-HIS SEQ ID NO: 52 (Hamamotoa singularis, UniProt Q564N5); details: 0.08-10.4 mM ONP-Glu, 20, 30, 42 and 55° C.
# T2 sequence (Q564N5 57-594): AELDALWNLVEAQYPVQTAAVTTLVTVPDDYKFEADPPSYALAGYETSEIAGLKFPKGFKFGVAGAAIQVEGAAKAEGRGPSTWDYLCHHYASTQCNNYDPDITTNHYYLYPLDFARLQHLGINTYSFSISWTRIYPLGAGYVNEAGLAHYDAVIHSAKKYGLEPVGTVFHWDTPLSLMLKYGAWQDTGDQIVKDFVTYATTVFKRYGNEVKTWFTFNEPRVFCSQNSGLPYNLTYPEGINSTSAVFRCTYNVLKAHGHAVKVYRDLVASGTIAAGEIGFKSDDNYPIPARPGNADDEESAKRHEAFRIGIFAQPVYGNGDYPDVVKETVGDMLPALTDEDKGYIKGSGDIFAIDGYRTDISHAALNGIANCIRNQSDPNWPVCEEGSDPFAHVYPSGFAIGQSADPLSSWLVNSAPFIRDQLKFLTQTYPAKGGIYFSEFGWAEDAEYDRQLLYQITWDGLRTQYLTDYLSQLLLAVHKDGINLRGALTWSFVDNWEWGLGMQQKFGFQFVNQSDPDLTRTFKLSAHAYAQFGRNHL
Compound,inhibition by lactose [1],Km (affinity for the substrate ONP-Glu) [2],"kcat (turnover activity, ONP-Glu) [2]",Km (affinity for the substrate ONP-Glu) [3],"kcat (turnover activity, ONP-Glu) [3]",Km (affinity for the substrate ONP-Glu) [4],"kcat (turnover activity, ONP-Glu) [4]",Km (affinity for the substrate ONP-Glu) [5],"kcat (turnover activity, ONP-Glu) [5]"
OC[C@H]1O[C@@H](O[C@H]2[C@H](O)[C@@H](O)C(O)O[C@@H]2CO)[C@H](O)[C@@H](O)[C@H]1O (stereo partly drawn) [lactose],does not appear to be inhibited by lactose concentrations above 20%,,,,,,,,
O=[N+]([O-])c1ccccc1O[C@@H]1O[C@H](CO)[C@@H](O)[C@H](O)[C@H]1O [ONP-Glu],,retain similar affinity for the substrate ONP-Glu (Km),retain similar affinity for the substrate ONP-Glu (Km) and turnover activity (kcat),retain similar affinity for the substrate ONP-Glu (Km),retain similar affinity for the substrate ONP-Glu (Km) and turnover activity (kcat),retain similar affinity for the substrate ONP-Glu (Km),retain similar affinity for the substrate ONP-Glu (Km) and turnover activity (kcat),retain similar affinity for the substrate ONP-Glu (Km),retain similar affinity for the substrate ONP-Glu (Km) and turnover activity (kcat)
